Assay results published in patent US10456343B2, “Microemulsion compositions comprising polydatin and method of use” (L'OREAL, priority 2017, dated 2019).

Experiment: Solubility of polydatin in the microemulsion compositions
Format: physicochemical
Conditions: solubilized in microemulsion
From the text: The inventors of the instant disclosure discovered that the incorporation of polydatin into the microemulsion compositions disclosed herein results in a variety of surprising and unexpected results. […] A higher amount of solubilized polydatin is particularly beneficial in cosmetic compositions for application to the skin because it allows for increased transdermal delivery. The inventors also unexpectedly discovered that polydatin acts as a “clarifying agent,” i.e., it improves or enhances the transparency (clarity) of microemulsion compositions. […] Both formulations include baicalin. […] Thus, in addition to polydatin, the microemulsion composition of the instant disclosure are effective for incorporating baicalin into cosmetic and/or pharmaceutical compositions.

OC[C@H]1O[C@@H](Oc2cc(O)cc(/C=C/c3ccc(O)cc3)c2)[C@H](O)[C@@H](O)[C@@H]1O [polydatin, 3,4′,5-trihydroxystibene-3-β-mono-D glucoside]
solubility of polydatin in the microemulsion compositions: up to 1.5%
